Assay results taken from patent publication US4963570A, “1-(acetylaminophenyl)-2-aminopropanone derivatives and pharmaceutical compositions thereof” (Laboratoire L. Lafon, priority 1983, dated 1990).
“Also recorded” adds a separate entry of the source.

Columns and labels:
mice [1] = test: overall behavior and reactivities in mice; assay type: in vivo, mouse; conditions: mice, i.p.; dose not stated
Description: (§1) Groups of three animals are observed before and then 0.25 hour, 0.50 hour, 1 hour, 2 hours, 3 hours and 24 hours after the administration of CRL 41 224.

rats [2] = test: overall behavior and reactivities in rats; assay type: in vivo, rat; conditions: i.p., dose not stated
Description: as §1

mice [3] = test: interaction with apomorphine in mice; assay type: in vivo, mouse; conditions: i.p.; dose not stated
Description: Groups of 6 mice receive CRL 41 224 0.5 hour before the subcutaneous injection of 1 or 16 mg/kg of apomorphine.

rats [4] = test: interaction with apomorphine in rats; assay type: in vivo, rat; conditions: i.p., dose not stated
Description: CRL 41 224 is administered to groups of 6 rats 0.5 hour before the subcutaneous injection of 0.5 mg/kg of apomorphine.

rats [5] = test: interaction with amphetamine; assay type: in vivo, rat; conditions: rats, i.p.; dose not stated
Description: Amphetamine (2 mg/kg) is injected intraperitoneally into groups of 6 rats 30 minutes after the administration of CRL 41 224.

mice [6] = test: interaction with reserpine; assay type: in vivo, mouse; conditions: i.p.; dose not stated
Description: Four hours after the intraperitoneal injection of 2.5 mg/kg of reserpine, groups of 6 mice receive CRL 41 224.

mice [7] = test: interaction with oxotremorine; assay type: in vivo, mouse; conditions: i.p.
Description: CRL 41 224 is administered to groups of 6 mice 0.5 hour before the intraperitoneal injection of 0.5 mg/kg of oxotremorine.

mice [8] = test: four plate test, traction and electric shock; assay type: in vivo, mouse; conditions: i.p.
Description: The test is performed on groups of 10 mice 30 minutes after the administration of CRL 41 224.

mice [9] = test: action on the spontaneous motility (actimeter); assay type: in vivo, mouse; conditions: mice, i.p.; dose not stated
Description: 0.5 hour after they have received CRL 41 224, the mice (6 per dose, 12 control animals) are placed in an actimeter, where their motility is recorded for 30 minutes.

mice [10] = test: motility reduced by habituation to the enclosure; assay type: in vivo, mouse; conditions: i.p., dose not stated
Description: After they have stayed in the actimeters for 18 hours, the mice (6 per dose, 12 control animals) receive CRL 41 224. They are immediately returned to their respective enclosures and, half an hour later, their motility is recorded for 30 minutes.

mice [11] = test: motility reduced by hypoxic aggression; assay type: in vivo, mouse; conditions: i.p., dose not stated
Description: Half an hour after they have received CRL 41 224, the mice (10 per dose, 20 control animals) are subjected to acute hypobaric anoxia [pressure reduction of 600 mm Hg (i.e. about 8×10^4 Pa) in 90 seconds; release of vacuum in 45 seconds] and are then placed in an actimeter, where their motility is recorded for 10 minutes.

mice [12] = test: interaction with barbital; assay type: in vivo, mouse; conditions: i.p.; dose not stated
Description: Half an hour after the administration of CRL 41 224, groups of 10 mice receive an intraperitoneal injection of barbital (220 mg/kg).

mice [13] = test: action on the behavioral despair; assay type: in vivo, mouse; conditions: i.p., dose not stated
Source text: Half an hour after they have received CRL 41 224, groups of 6 mice are placed in a beaker filled with water to a height of 6 cm. The total period of immobility between the 2nd and 6th minutes following immersion is noted.

CNS = test: overall neuropsychopharmacological (CNS) profile; assay type: in vivo, mouse; rat; conditions: i.p., mice and rats; dose not stated
Description: The neuropsychopharmacological study of CRL 41 219 was carried out as indicated above for CRL 41 224.
The neuropsychopharmacological study of CRL 41 220 was carried out in accordance with the procedures given above for CRL 41 224.

[14] = tested on: peripheral α-adrenergic stimulation; test: signs of peripheral adrenergic stimulation; assay type: in vivo, mouse; rat; conditions: i.p., dose not stated
Description: as §1

mice [15] = test: toxicity to grouped mice compared with isolated mice; assay type: in vivo, mouse
rats [16] = test: action on stereotypies in rats (α-methyltyrosine, haloperidol, reserpine)
male mice [17] = test: acute toxicity, intraperitoneal (lethal doses); assay type: in vivo, mouse; conditions: i.p.
Description: By intraperitoneal administration to male mice, the LD-30 (lethal dose for 30% of the animals tested) is of the order of 128 mg/kg and the LD-50 is of the order of about 200 mg/kg.

mice [18] = test: action on the intergroup aggression; assay type: in vivo, mouse; conditions: i.p., dose not stated
Description: After they have stayed for 3 weeks in the 2 halves of a cage divided by an opaque partition, groups of 3 mice receive CRL 41 224. Half an hour later, the two groups from the same cage are brought together by removal of the partition, and the number of fights which occur in 10 minutes is noted. Half the test is performed on ordinary mice (NMRI, C.E.R. January) and half on NMRI (Iffa Credo) mice.

male mice [19] = conditions: reference stimulant agents; cited from earlier work

| SMILES | excitation in mice (mice [1]) | stereotype movements in rats (rats [2]) | hypothermia induced by apomorphine (mice [3]) | stereotypies induced by apomorphine (rats [4]) | stereotypies induced by amphetamine (rats [5]) | hypothermia induced by reserpine (mice [6]) | ptosis induced by reserpine (mice [6]) | hypothermia induced by oxotremorine (mice [7]; dose not stated) | spontaneous motility / motor activity (mice [9]) | motor activity after habituation to the enclosure (mice [10]) | motor recovery after hypoxic aggression (mice [11]) | sleep induced by barbital (mice [12]) | period of immobility or "despair" (mice [13]) | overall action on the CNS (CNS) | mydriasis [14] | peripheral adrenergic stimulation, overall [14] | motor effects with I.V.C. administration of noradrenaline (male mice [19]) | other results |
| --- | --- | --- | --- | --- | --- | --- | --- | --- | --- | --- | --- | --- | --- | --- | --- | --- | --- | --- |
| CNC(C)C(=O)c1ccc(NC(C)=O)cc1 (stereo not drawn) [CRL 41 217] | excitation with hyperreactivity in mice | stereotype movements in rats | antagonism of the hypothermia induced by apomorphine | potentiation of the stereotypies induced by apomorphine | potentiation of the stereotypies induced by apomorphine or amphetamine | antagonism of the hypothermia induced by apomorphine, oxotremorine or reserpine | antagonism of the ptosis induced by reserpine | antagonism of the hypothermia induced by apomorphine, oxotremorine | an increase in the spontaneous motility in mice | a resumption in the motor activity of mice accustomed to their enclosure | an improvement in the motor recovery in mice after acute hypoxia | antagonism of the sleep induced by barbital | a reduction in the immobility | stimulant effects; also recorded: antidepressant effects | mydriasis | effects which may reflect peripheral adrenergic stimulation |  | trembling caused by oxotremorine (mice [7]; dose not stated): antagonism of the trembling caused by oxotremorine; convulsant effects of electric shock (mice [8]; dose not stated): potentiate the convulsant effects of electric shock; exophthalmos [14]: absent; salivation [14]: absent; toxicity to grouped mice compared with isolated mice (mice [15]): do not increase the toxicity to grouped mice; suppression of induced stereotype movements by prior injection of alpha-methyltyrosine (rats [16]; i.p.): not suppressed |
| CC(=O)Nc1ccc(C(=O)C(C)NC2CC2)cc1 (stereo not drawn) [CRL 41 245] | excitation with hyperreactivity in mice | presence of stereotype movements in mice and rats | antagonism of the hypothermia induced by apomorphine | potentiation of the stereotypies induced by apomorphine | potentiation of the stereotypies induced by apomorphine and amphetamine | antagonism of the hypothermia induced by apomorphine, reserpine | reduction in the ptosis induced by reserpine | antagonism of the hypothermia induced by apomorphine, reserpine and oxotremorine | increase in the spontaneous motor activity | resumption in the motor activity of mice accustomed to their enclosure | improvement in the motor recovery in mice subjected to acute hypoxia | reduction in the duration of the sleep induced by barbital | reduction in the period of immobility | behaves as an antidepressant with a strong stimulant component | mydriasis in rats | peripheral α-adrenergic stimulation |  | LD-0 (maximum non-lethal dose) (male mice [17]): greater than 256 mg/kg; LD-100 (male mice [17]): less than or equal to 512 mg/kg; stereotype movements in mice (mice [1]): presence of stereotype movements in mice; excitation in rats (rats [2]): excitation with hyperreactivity in mice and rats; trembling due to oxotremorine (mice [7]; strong dose): a reduction, at a strong dose, in the intensity of the trembling due to oxotremorine; convulsant effects of electric shock (mice [8]; strong/high dose): total antagonism; number of punished passes in the 4 plate test (mice [8]; mice, dose not stated): increase in the number of punished passes; intergroup aggression (mice [18]): a reduction in the intergroup aggression; piloerection ([14]; mice and rats): piloerection in mice and rats |
| CC(N)Cc1ccccc1 (stereo not drawn) [amphetamine, reference compound] |  |  |  |  |  |  |  |  |  |  |  |  |  |  |  |  | potentialized by I.V.C. administration of noradrenaline | effect of haloperidol on induced stereotypies (rats [16]; haloperidol 0.25 mg/kg i.p. 0.5 h before): almost totally prevents the appearance of stereotypies; effect of haloperidol on induced stereotypies (rats [16]; haloperidol 0.5 mg/kg i.p. 0.5 h before): totally inhibits the said stereotypies |
| COC(=O)[C@H]1[C@@H](OC(=O)c2ccccc2)C[C@@H]2CC[C@H]1N2C [cocaine] |  |  |  |  |  |  |  |  |  |  |  |  |  |  |  |  | potentialized by I.V.C. administration of noradrenaline |  |
| COC(=O)C(c1ccccc1)C1CCCCN1 (stereo not drawn) [methylphenidate, reference compound] |  |  |  |  |  |  |  |  |  |  |  |  |  |  |  |  | potentialized by I.V.C. administration of noradrenaline | effect of reserpine on induced stereotypies (rats [16]; reserpine 4 mg/kg i.p. 24 hours before): only a moderate reduction of the stereotypies |
| CN1Cc2c(N)cccc2C(c2ccccc2)C1 (stereo not drawn) [nomifensine] |  |  |  |  |  |  |  |  |  |  |  |  |  |  |  |  | potentialized by I.V.C. administration of noradrenaline |  |
